Data taken from patent publication US12303521B2, “Methods for treating liver cancers using an orally administered dioxolane nucleotide in combination with an anti-PD1 or anti-PDL1 monoclonal antibody” (MEDIVIR AB, priority 2019, dated 2025).
“Also recorded” adds a separate entry of the source.

Experiments:
HT-29 = assay: Sensitivity of HT-29 cells to MIV-818 alone (IC50); format: cell-based; details: Homo sapiens; HT-29, MIV-818 alone
HepG2 = assay: IC50 in representative HCC cell line HepG2; format: cell-based; details: Homo sapiens
[1] = Stability in human plasma; format: in vitro ADME
[2] = Stability in rodent blood / plasma; format: in vitro ADME
[3] = tested on: vascular or stromal models of HT-29 and peripheral blood mononuclear cells (PBMCs); assay: BioMAP Oncology CRC panel, system not specified (tumour immune microenvironment model); format: cell-based, human; details: 4 concentrations, 48-hrs, vs vehicle control
From the text: (§1) To recapitulate the complex signaling networks that manifest in the multi-component TME, the BioMAP Oncology systems co-culture human primary immune cells with primary tissue cells in the presence of a specific cancer cell line. These co-cultures are stimulated with submitogenic levels of T cell receptor (TCR) ligands to prime, but not maximally activate T cells and model immune cells recruited to the intra-tumoural microenvironment.
There are two BioMAP Oncology panels that model the interactions between the immune-stromal (fibroblasts) and immune-vascular (endothelial cells) environments in the context of colon cancer (HT-29 CRC cell line), or in the context of non-small lung cancer (NCI-H1299 NSCLC cell line). The interactions between tumour cells, stimulated immune cells (peripheral blood mononuclear cells (PBMC)), and the host stromal network (human neonatal dermal fibroblasts (HDFn)) is captured in the Stro Oncology systems. In parallel, the Vasc systems capture the interactions between tumour cells, activated immune cells and the vascular tissue (human umbilical vein endothelial cells (HUVEC). The biomarkers selected for the Oncology panels inform on activities related to inflammation, immune-function, tissue remodeling and metastasis in the context of a host tumour-microenvironment. Collectively, the Oncology CRC panel and the Oncology NSCLC panel.
Human primary cells in BioMAP systems are used at early passage (passage 4 or earlier) to minimize adaptation to cell culture conditions and preserve physiological signaling responses. All primary cells are pooled from multiple donors (n=3-6), commercially purchased and handled according to the recommendations of the manufacturers. The HT-29 CRC cell line and the NCI-H1299 NSCLC cell line are purchased from American Type Culture Collection (ATCC). Abbreviations are used as follows: human umbilical vein endothelial cells (HUVEC), peripheral blood mononuclear cells (PBMC), human neonatal dermal fibroblasts (HDFn) and T cell receptor (TCR). Systems in both the Oncology CRC and NSCLC panels are stimulated by sub-mitogenic levels of super antigens (SAg) acting via the TCR to recapitulate the recruitment of immune cells to the tumour environment in situ. These stimulation conditions are optimized to activate or prime T cells, but not drive T cell proliferation.
Cell types used in each of the CRC systems are as follows: StroHT29 system [HT-29 colorectal adenocarcinoma cell line+HDFn+PBMC] and VascHT29 system [HT-29 colorectal adenocarcinoma cell line+HUVEC+PBMC].
Adherent cell types are cultured in 96-well plates until confluent, followed by the addition of PBMC. Test agents prepared in either DMSO (small molecules; final concentration ≤0.1%) or PBS (biologics) are added at the specified concentrations 1-hr before stimulation, and remain in culture for 48-hrs. Each plate contains drug controls (e.g., legacy control test agent colchicine), negative controls (e.g., non-stimulated condition) and vehicle controls (e.g., 0.1% DMSO). Direct ELISA is used to measure biomarker levels of cell-associated and cell membrane targets. Soluble factors from supernatants are quantified using either HTRF® detection, bead-based multiplex immunoassay or capture ELISA. Effects of test agents on cell viability (cytotoxicity) are measured by sulforhodamine B (SRB) for adherent cells (48-hrs), and by alamarBlue® reduction for cells in suspension (42-hrs) at the time points indicated. All test agents are tested in standardized formats at 4 concentrations, in triplicate. Colchicine stimulated wells, vehicle control treated wells, and wells without stimulation are included as controls on each plate (n=3-8). Data acceptance criteria are based on plate performance (% CV of controls), and the performance of positive controls across assays with a comparison to historical controls. […]

[4] = tested on: HT-29 colorectal adenocarcinoma cell line+HDFn+PBMC; assay: BioMAP StroHT29 system; format: cell-based, human; details: stromal IL-6, FIG. 14
From the text: as §1
There are two BioMAP Oncology panels that model the interactions between the immune-stromal (fibroblasts) and immune-vascular (endothelial cells) environments in the context of colon cancer (HT-29 CRC cell line), or in the context of non-small lung cancer (NCI-H1299 NSCLC cell line). The interactions between tumour cells, stimulated immune cells (peripheral blood mononuclear cells (PBMC)), and the host stromal network (human neonatal dermal fibroblasts (HDFn)) is captured in the Stro Oncology systems. […]
Adherent cell types are cultured in 96-well plates until confluent, followed by the addition of PBMC. […] Soluble factors from supernatants are quantified using either HTRF® detection, bead-based multiplex immunoassay or capture ELISA. Effects of test agents on cell viability (cytotoxicity) are measured by sulforhodamine B (SRB) for adherent cells (48-hrs), and by alamarBlue® reduction for cells in suspension (42-hrs) at the time points indicated. […]

Human PBMC = assay: IL-2 expression in SEB-stimulated PBMC cultures; format: cell-based; details: five days, Luminex
SK-OV-3 tumour cells = assay: PBMC-mediated tumour cell killing; format: cell-based, human; details: anti-CD3 stimulated PBMC co-culture, 68 hrs, 5000 nM MIV-818
Protocol: Whole blood from three healthy donors was used. PBMC were isolated over a density gradient and counted before adding to NucLight Red labelled tumour targets at a defined E:T ratio in the presence of anti-CD3 stimulation. Tumour cell—PBMC co-cultures were incubated with test compounds at eight concentrations. Appropriate controls were included: PBMC alone, tumour cells alone, tumour cells/PBMC in the presence of a reference compound at a single concentration. All test conditions were also plated onto tumour cells in the absence of stimulated PBMC in order to detect direct compound-associated tumour cytotoxicity. Tumour killing was evaluated by counting viable NucLight positive tumour cells over time. In addition, a Caspase 3/7 dye was used to identify apoptotic tumour cells. Cultures were analysed using an IncuCyte ZOOM machine which allows real-time quantitative live cell fluorescent imaging. Co-cultures were imaged over 68 hrs. Each culture condition was established in triplicate. Cell culture supernatants were stored for optional cytokine analysis.
PBMC were isolated from 3 healthy donors and added to co-cultures with anti-CD3 stimulation and NucLight Red labelled SK-OV-3 tumour cells. […] SK-OV-3 apoptotic cell death was monitored in the co-culture system by imaging for 68 hours using the IncuCyte Zoom software.

[5] = pulmonary metastatic liver cancer, Wu et al 2017; cited from earlier work

| Compound | IC50 (HT-29) | IC50 (HepG2) | stability in human plasma [1] | metabolism in rodent blood ([2]; rodent blood) | stability in rodent plasma ([2]; rodent plasma) | Collagen III [3] | IP-10 [3] | VCAM-1 [3] | sIFNγ [3] | sIL-6 [3] | sIL-17A [3] | uPAR [3] | sIL-6 in the stromal HT-29 system [4] | IL-2 expression (Human PBMC) | PBMC-mediated tumour cell killing (apoptotic SK-OV-3 counts) (SK-OV-3 tumour cells) | adverse event reported [5] |
| --- | --- | --- | --- | --- | --- | --- | --- | --- | --- | --- | --- | --- | --- | --- | --- | --- |
| CCC[C@H](C)OC(=O)[C@H](C)NP(=O)(OC[C@H]1OC[C@@H](n2ccc(N)nc2=O)O1)Oc1ccc(Br)cc1 (stereo in doubt) [MIV-818] | ~20 nM | ~20 nM | stable | very quickly metabolized | extremely unstable | decreased | decreased | decreased | increased | decreased | increased | Decreased | inhibits | induced | enhance | – |
| pembrolizumab: humanized monoclonal IgG4 antibody directed against human cell surface receptor PD-1 | – | – | – | – | – | – | – | – | – | – | – | – | increase; also recorded: modest enhancement | – | – | liver failure |
